According to PubChem BioAssay AID1745844 (Carcinogenic Potency Database (CPDB), 2022):

Test system: rodent lifetime carcinogenesis bioassay, tumor incidence TD50
Assay: carcinogenic potency in animals, long-term in vivo studies, CPDB compilation (AID 1745844)
Details: in feed, study length 104 weeks

## COc1ccccc1[N+](=O)[O-]
mouse, strain B6C3F1, females, site: all sites, lesion: malignant lymphoma, histiocytic type + malignant lymphoma, mixed type + malignant lymphoma, lymphocytic type + malignant lymph, dosed 103 weeks
  TD50: 153 mg/kg/day
mouse, strain B6C3F1, females, site: any site (literature study), lesion: several types, types named in the paper, dosed 103 weeks
  TD50: 350 mg/kg/day
mouse, strain B6C3F1, females, site: liver, lesion: hepatocellular adenoma + hepatoblastoma + hepatocellular carcinoma, dosed 103 weeks
  TD50: 194 mg/kg/day
mouse, strain B6C3F1, females, site: liver, lesion: hepatocellular adenoma + hepatocellular carcinoma, dosed 103 weeks
  TD50: 194 mg/kg/day
mouse, strain B6C3F1, females, site: liver, lesion: hepatocellular adenoma, dosed 103 weeks
  TD50: 179 mg/kg/day
mouse, strain B6C3F1, males, site: any site (literature study), lesion: several types, types named in the paper, dosed 103 weeks
  TD50: 43500 mg/kg/day
mouse, strain B6C3F1, males, site: liver, lesion: hepatoblastoma + hepatocellular carcinoma, dosed 103 weeks
  TD50: 391 mg/kg/day
mouse, strain B6C3F1, males, site: liver, lesion: hepatoblastoma, dosed 103 weeks
  TD50: 428 mg/kg/day
mouse, strain B6C3F1, males, site: liver, lesion: hepatocellular adenoma + hepatoblastoma + hepatocellular carcinoma, dosed 103 weeks
  TD50: 198 mg/kg/day
mouse, strain B6C3F1, males, site: liver, lesion: hepatocellular adenoma + hepatocellular carcinoma, dosed 103 weeks
  TD50: 208 mg/kg/day
mouse, strain B6C3F1, males, site: liver, lesion: hepatocellular adenoma, dosed 103 weeks
  TD50: 177 mg/kg/day
rat, strain Fischer 344, females, site: all sites, lesion: mononuclear-cell leukemia, dosed 103 weeks
  TD50: 152 mg/kg/day
rat, strain Fischer 344, females, site: any site (literature study), lesion: several types, types named in the paper, dosed 27 weeks
  TD50: 10.7 mg/kg/day
rat, strain Fischer 344, females, site: any site (literature study), lesion: several types, types named in the paper, dosed 103 weeks
  TD50: 336 mg/kg/day
rat, strain Fischer 344, females, site: colon, lesion: adenomatous polyp, dosed 27 weeks
  TD50: 60.9 mg/kg/day
rat, strain Fischer 344, females, site: colon, lesion: carcinoma, dosed 27 weeks
  TD50: 1300 mg/kg/day
rat, strain Fischer 344, females, site: forestomach, lesion: squamous-cell carcinoma + squamous-cell papilloma, dosed 103 weeks
  TD50: 1270 mg/kg/day
rat, strain Fischer 344, females, site: forestomach, lesion: squamous-cell papilloma, dosed 103 weeks
  TD50: 3270 mg/kg/day
rat, strain Fischer 344, females, site: kidney + large intestine + urinary bladder, lesion: transitional-cell carcinoma + transitional-cell papilloma + adenomatous polyp + carcinoma + sarcoma + squamous-cell carcinoma + squa, dosed 27 weeks
  TD50: 12.9 mg/kg/day
rat, strain Fischer 344, females, site: kidney, lesion: transitional-cell carcinoma + transitional-cell papilloma, dosed 27 weeks
  TD50: 1240 mg/kg/day
rat, strain Fischer 344, females, site: kidney, lesion: transitional-cell carcinoma, dosed 27 weeks
  TD50: 3550 mg/kg/day
rat, strain Fischer 344, females, site: kidney, lesion: transitional-cell papilloma, dosed 27 weeks
  TD50: 1890 mg/kg/day
rat, strain Fischer 344, females, site: large intestine, lesion: adenomatous polyp + carcinoma, dosed 27 weeks
  TD50: 55 mg/kg/day
rat, strain Fischer 344, females, site: large intestine, lesion: adenomatous polyp, dosed 27 weeks
  TD50: 55 mg/kg/day
rat, strain Fischer 344, females, site: large intestine, lesion: carcinoma, dosed 27 weeks
  TD50: 1300 mg/kg/day
rat, strain Fischer 344, females, site: liver, lesion: hepatocellular adenoma + hepatoblastoma + hepatocellular carcinoma, dosed 103 weeks
  TD50: 1010 mg/kg/day
rat, strain Fischer 344, females, site: liver, lesion: hepatocellular adenoma, dosed 103 weeks
  TD50: 1010 mg/kg/day
rat, strain Fischer 344, females, site: lung, lesion: alveolar/bronchiolar adenoma, dosed 103 weeks
  TD50: 666 mg/kg/day
rat, strain Fischer 344, females, site: rectum, lesion: adenomatous polyp, dosed 27 weeks
  TD50: 560 mg/kg/day
rat, strain Fischer 344, females, site: urinary bladder, lesion: sarcoma, dosed 27 weeks
  TD50: 192 mg/kg/day
rat, strain Fischer 344, females, site: urinary bladder, lesion: squamous-cell carcinoma + squamous-cell papilloma, dosed 27 weeks
  TD50: 588 mg/kg/day
rat, strain Fischer 344, females, site: urinary bladder, lesion: squamous-cell carcinoma, dosed 27 weeks
  TD50: 2700 mg/kg/day
rat, strain Fischer 344, females, site: urinary bladder, lesion: squamous-cell papilloma, dosed 27 weeks
  TD50: 751 mg/kg/day
rat, strain Fischer 344, females, site: urinary bladder, lesion: transitional-cell carcinoma + transitional-cell papilloma, dosed 27 weeks
  TD50: 13 mg/kg/day
rat, strain Fischer 344, females, site: urinary bladder, lesion: transitional-cell carcinoma, dosed 27 weeks
  TD50: 13.2 mg/kg/day
rat, strain Fischer 344, females, site: urinary bladder, lesion: transitional-cell papilloma, dosed 27 weeks
  TD50: 543 mg/kg/day
rat, strain Fischer 344, males, site: adrenal medulla, lesion: pheochromocytoma benign, bilateral + pheochromocytoma, benign, dosed 103 weeks
  TD50: 89.6 mg/kg/day
rat, strain Fischer 344, males, site: adrenal medulla, lesion: pheochromocytoma benign, bilateral + pheochromocytoma, malignant + pheochromocytoma, benign, dosed 103 weeks
  TD50: 109 mg/kg/day
rat, strain Fischer 344, males, site: all sites, lesion: mononuclear-cell leukemia, dosed 103 weeks
  TD50: 25.9 mg/kg/day
rat, strain Fischer 344, males, site: any site (literature study), lesion: several types, types named in the paper, dosed 27 weeks
  TD50: 3.97 mg/kg/day
rat, strain Fischer 344, males, site: any site (literature study), lesion: several types, types named in the paper, dosed 103 weeks
  TD50: 21.4 mg/kg/day
rat, strain Fischer 344, males, site: cecum, lesion: adenomatous polyp, dosed 27 weeks
  TD50: 21.3 mg/kg/day
rat, strain Fischer 344, males, site: colon, lesion: adenomatous polyp, dosed 27 weeks
  TD50: 17.2 mg/kg/day
rat, strain Fischer 344, males, site: colon, lesion: carcinoma, dosed 27 weeks
  TD50: 573 mg/kg/day
rat, strain Fischer 344, males, site: forestomach, lesion: squamous-cell carcinoma + squamous-cell papilloma, dosed 103 weeks
  TD50: 304 mg/kg/day
rat, strain Fischer 344, males, site: forestomach, lesion: squamous-cell carcinoma, dosed 103 weeks
  TD50: 715 mg/kg/day
rat, strain Fischer 344, males, site: forestomach, lesion: squamous-cell papilloma, dosed 103 weeks
  TD50: 543 mg/kg/day
rat, strain Fischer 344, males, site: kidney + large intestine + urinary bladder, lesion: transitional-cell carcinoma + transitional-cell papilloma + adenomatous polyp + carcinoma + sarcoma + squamous-cell carcinoma + squa, dosed 27 weeks
  TD50: 7.47 mg/kg/day
rat, strain Fischer 344, males, site: kidney, lesion: transitional-cell carcinoma + transitional-cell papilloma, dosed 27 weeks
  TD50: 83.6 mg/kg/day
rat, strain Fischer 344, males, site: kidney, lesion: transitional-cell carcinoma, dosed 27 weeks
  TD50: 90.9 mg/kg/day
rat, strain Fischer 344, males, site: kidney, lesion: transitional-cell papilloma, dosed 27 weeks
  TD50: 1040 mg/kg/day
rat, strain Fischer 344, males, site: kidney, lesion: tubule adenoma + tubule carcinoma, dosed 103 weeks
  TD50: 251 mg/kg/day
rat, strain Fischer 344, males, site: kidney, lesion: tubule adenoma, dosed 103 weeks
  TD50: 435 mg/kg/day
rat, strain Fischer 344, males, site: kidney, lesion: tubule carcinoma, dosed 103 weeks
  TD50: 612 mg/kg/day
rat, strain Fischer 344, males, site: large intestine, lesion: adenomatous polyp + carcinoma, dosed 27 weeks
  TD50: 8.54 mg/kg/day
rat, strain Fischer 344, males, site: large intestine, lesion: adenomatous polyp, dosed 27 weeks
  TD50: 8.58 mg/kg/day
rat, strain Fischer 344, males, site: large intestine, lesion: carcinoma, dosed 27 weeks
  TD50: 573 mg/kg/day
rat, strain Fischer 344, males, site: liver, lesion: hepatocellular adenoma + hepatoblastoma + hepatocellular carcinoma, dosed 103 weeks
  TD50: 330 mg/kg/day
rat, strain Fischer 344, males, site: preputial gland, lesion: carcinoma + carcinoma, bilateral, dosed 103 weeks
  TD50: 195 mg/kg/day
rat, strain Fischer 344, males, site: rectum, lesion: adenomatous polyp, dosed 27 weeks
  TD50: 51.8 mg/kg/day
rat, strain Fischer 344, males, site: testis, lesion: interstitial-cell adenoma, bilateral + interstitial-cell adenoma, dosed 103 weeks
  TD50: 21.3 mg/kg/day
rat, strain Fischer 344, males, site: urinary bladder, lesion: sarcoma, dosed 27 weeks
  TD50: 292 mg/kg/day
rat, strain Fischer 344, males, site: urinary bladder, lesion: squamous-cell carcinoma + squamous-cell papilloma, dosed 27 weeks
  TD50: 273 mg/kg/day
rat, strain Fischer 344, males, site: urinary bladder, lesion: squamous-cell carcinoma, dosed 27 weeks
  TD50: 422 mg/kg/day
rat, strain Fischer 344, males, site: urinary bladder, lesion: squamous-cell papilloma, dosed 27 weeks
  TD50: 482 mg/kg/day
rat, strain Fischer 344, males, site: urinary bladder, lesion: transitional-cell carcinoma + transitional-cell papilloma, dosed 27 weeks
  TD50: 7.48 mg/kg/day
rat, strain Fischer 344, males, site: urinary bladder, lesion: transitional-cell carcinoma, dosed 27 weeks
  TD50: 8.28 mg/kg/day
rat, strain Fischer 344, males, site: urinary bladder, lesion: transitional-cell papilloma, dosed 27 weeks
  TD50: 75.6 mg/kg/day
